Publication PMC3245313, “Helicobacter pylori versus the Host: Remodeling of the Bacterial Outer Membrane Is Required for Survival in the Gastric Mucosa” (PLoS Pathogens, 2011)
Read-outs that look alike come from different tables or passages of the source. Where a SMILES comes first, the peptide text is derived from it. Bridges are numbered along the chain shown (N, C = ends). Where no end group is shown, it is not given here.

What was measured:
[1] = tested on: H. pylori J99 lpxE
[2] = tested on: H. pylori J99 lpxE/F
[3] = tested on: H. pylori J99 Wild Type
[4] = tested on: H. pylori J99 lpxF
[5] = tested on: H. pylori J99 lpxR
[6] = tested on: H. pylori B128 lpxF; assay type: cell-based, Helicobacter pylori; conditions: Polymyxin B E-Test strips on TSA with 5% blood, average of three experiments
[7] = tested on: H. pylori J99 lpxF, lpxF+; assay type: cell-based, Helicobacter pylori; conditions: Polymyxin B E-Test strips on TSA with 5% blood, average of three experiments
[8] = tested on: H. pylori J99 lpxE/F; assay type: cell-based, Helicobacter pylori
[9] = tested on: H. pylori X47 lpxE; assay type: cell-based, Helicobacter pylori; conditions: Polymyxin B E-Test strips on TSA with 5% blood, average of three experiments
[10] = tested on: H. pylori X47 Wild Type; assay type: cell-based, Helicobacter pylori; conditions: Polymyxin B E-Test strips on TSA with 5% blood, average of three experiments
[11] = tested on: H. pylori wild type strains; conditions: cited from earlier work
Experimental: Resistance to CAMPs is of great importance to all mucosal pathogens. This is especially true for H. pylori whose only known reservoir is the human gastric mucosal surface. H. pylori is highly resistant to the CAMP polymyxin B (PMB) with the minimal inhibitory concentration (MIC) of wild type strains ranging from 250–1000 µg/ml peptide. […] MICs were determined for all strains using PMB Etest strips. H. pylori wild type strain J9 ...

[12] = tested on: H. pylori B128 lpxE; assay type: cell-based, Helicobacter pylori; conditions: Polymyxin B E-Test strips on TSA with 5% blood, average of three experiments
[13] = tested on: H. pylori X47 lpxF; assay type: cell-based, Helicobacter pylori; conditions: Polymyxin B E-Test strips on TSA with 5% blood, average of three experiments
[14] = tested on: H. pylori B128 lpxE/F; assay type: cell-based, Helicobacter pylori; conditions: Polymyxin B E-Test strips on TSA with 5% blood, average of three experiments
[15] = tested on: H. pylori J99 lpxE; assay type: cell-based, Helicobacter pylori
[16] = tested on: H. pylori X47 lpxE/F; assay type: cell-based, Helicobacter pylori; conditions: Polymyxin B E-Test strips on TSA with 5% blood, average of three experiments
[17] = tested on: H. pylori J99 lpxR; assay type: cell-based, Helicobacter pylori; conditions: Polymyxin B E-Test strips on TSA with 5% blood, average of three experiments
[18] = tested on: H. pylori J99 lpxF; assay type: cell-based, Helicobacter pylori
[19] = tested on: H. pylori B128 Wild Type; assay type: cell-based, Helicobacter pylori; conditions: Polymyxin B E-Test strips on TSA with 5% blood, average of three experiments
[20] = tested on: H. pylori B128 lpxE, lpxE+; assay type: cell-based, Helicobacter pylori; conditions: Polymyxin B E-Test strips on TSA with 5% blood, average of three experiments
[21] = tested on: H. pylori X47 lpxF, lpxF+; assay type: cell-based, Helicobacter pylori; conditions: Polymyxin B E-Test strips on TSA with 5% blood, average of three experiments
[22] = tested on: H. pylori J99 Wild Type; assay type: cell-based, Helicobacter pylori; conditions: Polymyxin B E-Test strips on TSA with 5% blood, average of three experiments

CC[C@H](C)[C@@H]1NC(=O)[C@@H]2CSSC[C@@H]3NC(=O)[C@H](Cc4ccccc4)NC(=O)[C@H](C)NC(=O)[C@H](Cc4c[nH]c5ccccc45)NC(=O)[C@H](CC(C)C)NC(=O)[C@H](CCCNC(=N)N)NC(=O)CNC(=O)[C@H](CCC(N)=O)NC(=O)[C@H](Cc4ccc(O)cc4)NC(=O)[C@H]([C@@H](C)CC)NC(=O)[C@H](CSSC[C@H](NC(=O)[C@H](Cc4ccc(O)cc4)NC(=O)[C@@H](N)CSSC[C@@H](C(=O)O)NC3=O)C(=O)N[C@@H](CCCNC(=N)N)C(=O)N[C@@H]([C@@H](C)CC)C(=O)N3CCC[C@H]3C(=O)N[C@@H](C)C(=O)N2)NC(=O)[C@H]([C@@H](C)O)NC(=O)CNC(=O)[C@H](Cc2ccc(O)cc2)NC(=O)[C@H](CCCNC(=N)N)NC(=O)[C@H](CCCNC(=N)N)NC(=O)[C@H](CCC(=O)O)NC(=O)CNC(=O)[C@H](C)NC1=O [HNP2] (H-CYCRIPACIAGERRYGTCIYQGRLWAFCC-OH; disulfide 1-29, 3-18, 8-28 (inferred); N-terminus and C-terminus assumed)
Minimal Inhibitory Concentration (MIC) ([1]; J99 lpxE, 48 h): >25 µg/mL
Minimal Inhibitory Concentration (MIC) ([2]; J99 lpxE/F, 48 h): >25 µg/mL
Minimal Inhibitory Concentration (MIC) ([3]; J99 Wild Type, 48 h): >25 µg/mL
Minimal Inhibitory Concentration (MIC) ([4]; J99 lpxF, 48 h): >25 µg/mL
Minimal Inhibitory Concentration (MIC) ([5]; J99 lpxR, 48 h): >25 µg/mL

CC[C@H](C)[C@H](NC(=O)[C@H](CCCCN)NC(=O)[C@H](CCC(=O)O)NC(=O)[C@H](CCCCN)NC(=O)[C@H](CO)NC(=O)[C@H](CCCCN)NC(=O)[C@H](CCCNC(=N)N)NC(=O)[C@H](Cc1ccccc1)NC(=O)[C@H](Cc1ccccc1)NC(=O)[C@H](CC(=O)O)NC(=O)CNC(=O)[C@H](CC(C)C)NC(=O)[C@@H](N)CC(C)C)C(=O)NCC(=O)N[C@@H](CCCCN)C(=O)N[C@@H](CCC(=O)O)C(=O)N[C@@H](Cc1ccccc1)C(=O)N[C@@H](CCCCN)C(=O)N[C@@H](CCCNC(=N)N)C(=O)N[C@H](C(=O)N[C@H](C(=O)N[C@@H](CCC(N)=O)C(=O)N[C@@H](CCCNC(=N)N)C(=O)N[C@H](C(=O)N[C@@H](CCCCN)C(=O)N[C@@H](CC(=O)O)C(=O)N[C@@H](Cc1ccccc1)C(=O)N[C@@H](CC(C)C)C(=O)N[C@@H](CCCNC(=N)N)C(=O)N[C@@H](CC(N)=O)C(=O)N[C@@H](CC(C)C)C(=O)N[C@H](C(=O)N1CCC[C@H]1C(=O)N[C@@H](CCCNC(=N)N)C(=O)N[C@H](C(=O)N[C@@H](CCC(=O)O)C(=O)N[C@@H](CO)C(=O)O)[C@@H](C)O)C(C)C)[C@@H](C)CC)C(C)C)[C@@H](C)CC [LL37]
Minimal Inhibitory Concentration (MIC) ([1]; J99 lpxE, 48 h): 40 ± 0 µg/mL
Minimal Inhibitory Concentration (MIC) ([2]; J99 lpxE/F, 48 h): 11 ± 1 µg/mL
Minimal Inhibitory Concentration (MIC) ([3]; J99 Wild Type, 48 h): 40 ± 5 µg/mL
Minimal Inhibitory Concentration (MIC) ([4]; J99 lpxF, 48 h): 19 ± 2 µg/mL
Minimal Inhibitory Concentration (MIC) ([5]; J99 lpxR, 48 h): 41 ± 6 µg/mL

AKKVFKRLEKLFSKIQNDK [HP2.20]
Minimal Inhibitory Concentration (MIC) ([1]; J99 lpxE, 48 h): 583 ± 29 µg/mL
fold decrease in resistance ([2]; J99 double lpxE/F mutant versus wild type, broth dilution MICs): ≥ 60 fold
Minimal Inhibitory Concentration (MIC) ([2]; J99 lpxE/F, 48 h): 18 ± 3 µg/mL
Minimal Inhibitory Concentration (MIC) ([3]; J99 Wild Type, 48 h): >1250 µg/mL
Minimal Inhibitory Concentration (MIC) ([4]; J99 lpxF, 48 h): 60 ± 0 µg/mL
Minimal Inhibitory Concentration (MIC) ([5]; J99 lpxR, 48 h): >1250 µg/mL

AKRHHGYKRKFH-NH2 (C-terminus assumed) [P113]
Minimal Inhibitory Concentration (MIC) ([1]; J99 lpxE, 48 h): 341 ± 14 µg/mL
Minimal Inhibitory Concentration (MIC) ([2]; J99 lpxE/F, 48 h): 141 ± 14 µg/mL
Minimal Inhibitory Concentration (MIC) ([3]; J99 Wild Type, 48 h): >400 µg/mL
Minimal Inhibitory Concentration (MIC) ([4]; J99 lpxF, 48 h): 178 ± 3 µg/mL
Minimal Inhibitory Concentration (MIC) ([5]; J99 lpxR, 48 h): >400 µg/mL

GIGDPVTCLKSGAICHPVFCPRRYKQIGTCGLPGTKCCKKP (disulfide 8-37, 15-30, 20-38 (inferred)) [HBD2]
Minimal Inhibitory Concentration (MIC) ([1]; J99 lpxE, 48 h): 23 ± 3 µg/mL
Minimal Inhibitory Concentration (MIC) ([2]; J99 lpxE/F, 48 h): 5.0 ± 1.0 µg/mL
Minimal Inhibitory Concentration (MIC) ([3]; J99 Wild Type, 48 h): >25 µg/mL
Minimal Inhibitory Concentration (MIC) ([4]; J99 lpxF, 48 h): 12 ± 1 µg/mL
Minimal Inhibitory Concentration (MIC) ([5]; J99 lpxR, 48 h): >25 µg/mL

polymyxin B
Polymyxin MIC [6]: 1.8 ± 0.3 µg/mL
Polymyxin MIC [7]: 512.0 ± 0.0 µg/mL
fold decrease in resistance (increase in sensitivity) to PMB ([8]; J99 double lpxE/F mutant versus wild type J99, Etest MICs): 1020 fold
Polymyxin MIC ([8]; J99 lpxE/F, Polymyxin B E-Test strips on TSA with 5% blood, average of three experiments): 0.46 ± 0.03 µg/mL
Polymyxin MIC [9]: 37.3 ± 9.2 µg/mL
Minimal Inhibitory Concentration (MIC) [1]: 22 ± 2 µg/mL
Polymyxin MIC [10]: 768.0 ± 0.0 µg/mL
Minimal Inhibitory Concentration (MIC) [11]: 250 to 1000 µg/mL
Polymyxin MIC [12]: 26.7 ± 4.6 µg/mL
Polymyxin MIC [13]: 2.3 ± 0.6 µg/mL
Polymyxin MIC [14]: 0.61 ± 0.04 µg/mL
fold decrease in resistance (increase in sensitivity) to PMB ([15]; J99 lpxE mutant versus wild type J99, Etest MICs): 16 fold
Polymyxin MIC ([15]; J99 lpxE, Polymyxin B E-Test strips on TSA with 5% blood, average of three experiments): 29.3 ± 4.6 µg/mL
Minimal Inhibitory Concentration (MIC) [2]: 0.6 ± 0.1 µg/mL
Minimal Inhibitory Concentration (MIC) [3]: >250 µg/mL
Polymyxin MIC [16]: 0.55 ± 0.08 µg/mL
Polymyxin MIC [17]: 512.0 ± 0.0 µg/mL
Polymyxin MIC ([17]; listed as PMB): 512 ± 0.0 µg/mL
Minimal Inhibitory Concentration (MIC) [4]: 3.8 ± 0.3 µg/mL
Minimal Inhibitory Concentration (MIC) [5]: >250 µg/mL
fold decrease in resistance (increase in sensitivity) to PMB ([18]; J99 lpxF mutant versus wild type J99, Etest MICs): 360 fold
Polymyxin MIC ([18]; J99 lpxF, Polymyxin B E-Test strips on TSA with 5% blood, average of three experiments): 1.3 ± 0.3 µg/mL
Polymyxin MIC [19]: 213.3 ± 37.0 µg/mL
Polymyxin MIC [20]: 234.7 ± 37.0 µg/mL
Polymyxin MIC [21]: 682.7 ± 147.8 µg/mL
Polymyxin MIC [22]: 469.3 ± 73.9 µg/mL
